Laboratory results from US20230201217A1 (priority 2019, published 2023).
“And” between values parts separate entries of the source, which are not always exact repeats. Equal values may be shown once.

Tests used:
[1] = tested on: CD-1 mice; test: 14-day oral gavage GLP toxicity study in CD-1 mice; assay type: in vivo, mouse
Experimental: All test article-treated animals underwent up-titration of dosage levels prior to reaching the maximum daily dose, which was administered for 14 consecutive days. […] The dose volume was 10 mL/kg for all groups. Groups 1 and 4 each consisted of 25 animals/sex and Groups 2-3 each consisted of 20 animals for each sex. Following 14 days of dose administration, 15 mice/sex/toxicology group were euthanized; the remaining 5, (10 for the control and high dose group) mice/sex/toxicology group were euthanized following a 14-day nondosing (recovery) period. Following the final blood collection (study day 13), all toxicokinetic animals (from a satellite group of 18 animals/sex/dose level) were euthanized.
For toxicology assessment, all animals were observed twice daily for mortality and moribundity. Clinical observations were recorded daily, and detailed physical examinations were conducted weekly. Body weights and food consumption were recorded twice weekly. Body temperature was recorded prior to dosing and following dosing at the time that post-dosing clinical observations were conducted. Functional observational battery (FOB) data were recorded for all animals near the start of the treatment period, near the end of the treatment period, and near the end of the recovery period. Ophthalmic examinations were performed during pretest and near the end of the dosing period. At the primary necropsy 10 animals/sex/group and at the recovery necropsy 5 animals/sex/group, were selected for complete necropsies, clinical pathology assessment (hematology and serum chemistry), organ weight collection, and microscopic examination of a full list of tissues. At each termination interval, 5 animals/sex/group were assigned for neuropathology assessments that involved perfusion fixation, comprehensive sectioning of the brain and collection of selected peripheral nerves, and the employment of special stains used to detect subtle neuronal injury.

[2] = tested on: male CD-1 mice; test: Cardiovascular radiotelemetry in conscious CD-1 mice; assay type: in vivo, mouse
Description: The purpose of this study was to explore the physiological changes associated with mortality. Animals were implanted with a radiotelemetry transmitter in the peritoneal cavity with the catheter inserted in the femoral artery and the sensor tip positioned in the abdominal aorta. […] Within one hour of dosing, average heart rate (FIG. 14) decreased about 50%, and significant decreases in systolic (FIG. 15) and diastolic blood pressure (FIG. 16). In addition, body temperature generally dropped at each collection time point, reaching a maximum difference from baseline at 120 minutes post-dose (average change up to 6.5° C.). Following administration of the 200 mg/kg dose, body temperature continued to drop (up to 10.5° C.) until all mice died (˜12 hours post-dose). These changes in body temperature were considered test article-related and correlated to the observed changes in heart rate. Terminally, there was a further decrease in all of the parameters, with the rectal temperatures falling to as low as 22° C. before the mice died. Observed effects on behavior and activity included tremors, twitches, abnormal gait, lethargy, decreased motor activity, increased response to touch and startle, seizures, gasping and slow respirations, exophthalmia, and stupor.

[3] = tested on: monkeys; test: Single-dose oral toxicity; assay type: in vivo, monkey
Experimental: Single doses up to 300-400 mg/kg and 800 mg/kg appeared to be generally well tolerated in monkeys and rats, respectively (one monkey treated with 400 mg/kg died in the 2-week GLP study on Day 1 of dosing). […] In mice, mortality was consistently seen following single doses 150 mg/kg. Preliminary 5-day repeat-dose range-finding studies were conducted in mice, rats and monkeys. The definitive 14-day studies in mouse and monkey yielded generally similar results to those observed in the 5-day studies.

[4] = tested on: male cynomolgus monkeys; test: Cardiovascular and respiratory radiotelemetry in conscious cynomolgus monkeys; assay type: in vivo, cynomolgus monkey
Experimental: Clinical observations were performed at approximately 4 and 24 hours post-dosing.

[5] = target: T1, hERG potassium channel (Homo sapiens, UniProt Q12809); test: In vitro hERG channel inhibition assay, stably transfected CHO cells, voltage clamp; assay type: cell-based; details: average of 3 recordings; read-out: IC50, hERG current inhibition
T1 construct: expressed in transfected cells; host or cells: CHO, stably transfected
T1 sequence (Q12809 whole entry): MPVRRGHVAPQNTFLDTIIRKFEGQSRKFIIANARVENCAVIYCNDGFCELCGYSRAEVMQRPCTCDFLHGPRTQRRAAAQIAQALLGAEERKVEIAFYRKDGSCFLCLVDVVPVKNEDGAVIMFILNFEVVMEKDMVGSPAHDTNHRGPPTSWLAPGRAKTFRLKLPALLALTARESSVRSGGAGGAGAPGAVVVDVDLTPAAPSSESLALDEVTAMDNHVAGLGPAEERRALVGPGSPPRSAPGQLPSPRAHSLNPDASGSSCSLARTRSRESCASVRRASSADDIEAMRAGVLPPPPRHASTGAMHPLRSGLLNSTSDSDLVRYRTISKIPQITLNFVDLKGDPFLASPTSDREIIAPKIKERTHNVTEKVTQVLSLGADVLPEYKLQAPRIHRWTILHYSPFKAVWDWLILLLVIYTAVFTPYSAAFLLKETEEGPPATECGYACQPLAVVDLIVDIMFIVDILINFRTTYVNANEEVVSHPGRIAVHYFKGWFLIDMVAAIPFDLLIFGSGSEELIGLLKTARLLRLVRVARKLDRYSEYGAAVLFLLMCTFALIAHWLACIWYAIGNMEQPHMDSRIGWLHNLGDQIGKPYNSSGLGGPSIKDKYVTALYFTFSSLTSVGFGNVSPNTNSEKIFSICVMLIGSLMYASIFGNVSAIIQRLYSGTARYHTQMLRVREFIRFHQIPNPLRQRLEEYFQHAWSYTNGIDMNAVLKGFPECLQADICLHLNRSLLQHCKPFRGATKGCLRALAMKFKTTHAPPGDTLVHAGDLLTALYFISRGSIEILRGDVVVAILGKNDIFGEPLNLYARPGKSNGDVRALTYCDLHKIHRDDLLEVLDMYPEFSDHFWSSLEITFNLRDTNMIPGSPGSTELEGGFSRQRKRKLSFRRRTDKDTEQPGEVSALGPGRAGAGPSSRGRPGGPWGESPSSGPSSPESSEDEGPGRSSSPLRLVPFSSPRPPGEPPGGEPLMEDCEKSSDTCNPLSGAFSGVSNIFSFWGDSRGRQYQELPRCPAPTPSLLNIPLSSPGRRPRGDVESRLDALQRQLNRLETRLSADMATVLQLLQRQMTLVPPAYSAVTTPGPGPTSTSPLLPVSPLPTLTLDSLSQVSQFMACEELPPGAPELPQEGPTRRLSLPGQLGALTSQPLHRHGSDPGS
Experimental: The potential for 18-MC to inhibit the hERG potassium channel was evaluated in a stably transfected Chinese Hamster Ovary (CHO) cell line expressing hERG mRNA (FIG. 12). […] Cells were voltage clamped at a holding potential of −80 mV. The hERG current was then activated by a depolarizing step ([…] for 300 ms) and repeated every 12 s. 18-MC was prepared from 10 mM methanol stock solutions. The hERG current inhibition was calculated from the average of 3 separate recordings.

[6] = target: CYP2C8 (Homo sapiens, UniProt P10632); details: recombinant enzyme
CYP2C8, sequence (P10632 whole entry): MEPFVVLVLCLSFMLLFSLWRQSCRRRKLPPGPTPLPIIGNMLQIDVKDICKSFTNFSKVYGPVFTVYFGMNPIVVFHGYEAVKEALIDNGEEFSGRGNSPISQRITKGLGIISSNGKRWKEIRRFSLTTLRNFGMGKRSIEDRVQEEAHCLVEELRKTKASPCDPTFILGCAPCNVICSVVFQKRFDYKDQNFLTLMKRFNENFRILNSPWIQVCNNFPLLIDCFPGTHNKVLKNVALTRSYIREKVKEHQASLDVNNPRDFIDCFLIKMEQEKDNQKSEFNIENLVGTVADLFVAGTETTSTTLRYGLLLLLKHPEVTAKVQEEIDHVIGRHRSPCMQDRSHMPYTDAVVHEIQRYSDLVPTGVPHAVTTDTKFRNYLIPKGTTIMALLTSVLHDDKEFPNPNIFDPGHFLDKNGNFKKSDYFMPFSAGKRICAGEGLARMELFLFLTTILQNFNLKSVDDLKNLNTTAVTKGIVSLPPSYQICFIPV
Experimental: Control incubations were performed for each assay with appropriate positive inhibitory controls.

[7] = tested on: plasma protein; test: Plasma protein binding; assay type: in vitro ADME, Dog
Description: (§1) There is no information on the protein binding of any of the metabolites.

[8] = Phase 1 first-in-human study, pharmacokinetics in plasma
Experimental: Fourteen normal, healthy volunteers were enrolled in the study. Seven volunteers were treated in the first cohort (3 placebo, 4 received a single dose of 20 mg of 18-MC) and seven in the second cohort (2 placebo, 5 received 8 mg as 4 mg doses of 18-MC administered at 0 and plus 10 hours). For Cohort A, volunteers were monitored in a hospital unit for 2 days (36 hours) days, and were followed up for safety at Days 3, 7 and 30. For Cohort B, volunteers were monitored in a hospital unit for 2 days (36 hours), and were followed up for safety at Days 3, 4, 7 and 30.
This study was designed as a randomized, double-blind, placebo-controlled, single-center Phase 1 first-in-human clinical trial. After screening, volunteers were admitted to the hospital for 36 hours. […] Study article was initiated on Day 1 and volunteers were discharged on Day 2. Cohort A were seen as outpatients on Days 3, 7 and 30. Cohort B were seen as outpatients on Days 3, 4, 7 and 30. 14 subjects were in the study, 5 male and 9 female.
For Cohort A, pharmacokinetic samples were obtained at baseline and at 0.5, 1.0, 2.0, 6.0, 12.0, 24, 36 hours, and 7 days post dose.
Samples underwent two analyses: A research assay (LG/MS/TOF) developed by MicroConstants, Inc., was used to collect the raw data. The first analysis was to quantitate 18-MG and the known metabolites M2, M4 and M5 (using standard curves included in the run). The second analysis compared the peak heights of 18-MG and all the metabolites that could be identified in terms of relative peak height (M1 through M10, and P1-P3).

[9] = tested on: plasma protein; test: Plasma protein binding; assay type: in vitro ADME, Monkey
Description: as §1

[10] = cohort B, 4 mg PO at 0 and +10 hours

For `COCCC1CC2CN3CCc4c([nH]c5ccccc45)C(C(=O)OC)(C2)C13.Cl` (centres unmarked) [18-MC HCl, 18-Methoxycoronaridine hydrochloride], the mortality ([1]; 100 mg/kg/day group, Days −1 and 12) was “two male mice in the 100 mg/kg/day group were found dead”, the “HED of well tolerated dose” value ([1]; female mice, 100 mg/kg/day) was 8 mg/kg/day and the NOAEL ([1]; females) was 100 mg/kg/day. The “HED of well tolerated dose” value ([1]; male mice, 50 mg/kg/day) was 4 mg/kg/day, the NOAEL ([1]; males) was 50 mg/kg/day and the “neurobehavioral findings, Functional Observational Battery” value ([1]; up to 100 mg/kg/day, except non-adverse decreased body temperature) was “no noted neurobehavioral findings”. The “average change in body temperature from baseline” value ([2]; 100 mg/kg, 120 minutes post-dose) was “up to 6.5 °C”, the mortality ([2]; after 100 mg/kg oral dose) was “Two of the 6 animals died” and the mortality ([2]; after the 200 mg/kg dose (8 hours after 100 mg/kg)) was “all of the other animals died”. The “rectal temperature, terminal” value ([2]; before the mice died) was ≥ 22 °C, the “drop in body temperature” value ([2]; following the 200 mg/kg dose) was “up to 10.5 °C” and the “decrease in average heart rate” value ([2]; within one hour of dosing) was “about 50%”. For the same molecule, the “single dose generally well tolerated” value [3] was 300 to 400 mg/kg, the “cardiovascular parameters, body temperature, respiratory parameters” value ([4]; 30, 90, or 270 mg/kg single dose) was “did not affect” and the “NOEL on the cardiovascular and respiratory systems” value ([4]; single dose, highest dose tested) was 270 mg/kg.

For `COCC[C@H]1CC2CN3CCc4c([nH]c5ccccc45)[C@](C(=O)OC)(C2)[C@H]13` [18-MC, 18-methoxycoronaridine], the IC50 [5] was 1.46 µM and 1.6 µM, the IC50 [6] was 19 µM and the “% Bound Mean ± SD” value ([7]; 200 ng/mL) was 92.1 ± 1.78%. For the same molecule, the “% Bound Mean ± SD” value ([7]; 600 ng/mL) was 94.8 ± 1.42%, the “% Bound Mean ± SD” value ([7]; 5,000 ng/mL) was 93.2 ± 0.153% and the “Average % Bound Mean ± SD” value ([7]; average of 3 concentrations) was 93.4 ± 1.36%. For the same molecule, the elimination half-life ([8]; 4 mg at 0 and +10 hours (8 mg total), longer sampling interval) was “about 48 hours”, the Tmax ([8]; cohort A or B, generally) was “½” and the “AUCall, Average” value ([8]; cohort A, 20 mg PO single dose) was 0.339 µg·h/mL. For the same molecule, the “AUCall, Max” value ([8]; cohort A, 20 mg PO single dose) was 0.447 µg·h/mL, the “AUCall, Min” value ([8]; cohort A, 20 mg PO single dose) was 0.241 µg·h/mL and the “Cmax, Average” value ([8]; cohort A, 20 mg PO single dose) was 0.119 µg/mL. For the same molecule, the “Cmax, Max” value ([8]; cohort A, 20 mg PO single dose) was 0.182 µg/mL, the “Cmax, Min” value ([8]; cohort A, 20 mg PO single dose) was 0.092 µg/mL and the “Half-Life, Average” value ([8]; cohort A, 20 mg PO single dose) was 17.9 h. For the same molecule, the “Half-Life, Max” value ([8]; cohort A, 20 mg PO single dose) was 21.7 h, the “Half-Life, Min” value ([8]; cohort A, 20 mg PO single dose) was 14.2 h and the “Tmax, Average” value ([8]; cohort A, 20 mg PO single dose) was 0.5 h. The “Tmax, Max” value ([8]; cohort A, 20 mg PO single dose) was 0.5 h, the “Tmax, Min” value ([8]; cohort A, 20 mg PO single dose) was 0.5 h and the “AUCall, Average” value [8, 10] was 0.195 µg·h/mL. For the same molecule, the “AUCall, Max” value [8, 10] was 0.4 µg·h/mL, the “AUCall, Min” value [8, 10] was 0.124 µg·h/mL and the “Cmax, Max” value [8, 10] was 0.046 µg/mL. The “Cmax, Min” value [8, 10] was 0.02 µg/mL, the “Half-Life, Average” value [8, 10] was 16.9 h and the “Half-Life, Max” value [8, 10] was 52.2 h. The “Half-Life, Min” value [8, 10] was 3.0 h, the “Tmax, Average” value [8, 10] was 2.55 h and the “Tmax, Max” value [8, 10] was 10.25 h. The “Tmax, Min” value [8, 10] was 0.5 h, the “% Bound Mean ± SD” value ([9]; 200 ng/mL) was 98.4 ± 0.643% and the “% Bound Mean ± SD” value ([9]; 600 ng/mL) was 97.7 ± 0.100%. The “% Bound Mean ± SD” value ([9]; 5,000 ng/mL) was 97.2 ± 0.100% and the “Average % Bound Mean ± SD” value ([9]; average of 3 concentrations) was 97.8 ± 0.603%.
